Key:
[1] = target: Cyclin-dependent kinase 14 (Homo sapiens, UniProt O94921)
[2] = target: Phosphatidylinositol 4-phosphate 5-kinase type-1 alpha (Homo sapiens, UniProt Q99755)
[3] = target: T1, Serine/threonine-protein kinase NLK (Homo sapiens, UniProt Q9UBE8)
T1 sequence (Q9UBE8 whole entry): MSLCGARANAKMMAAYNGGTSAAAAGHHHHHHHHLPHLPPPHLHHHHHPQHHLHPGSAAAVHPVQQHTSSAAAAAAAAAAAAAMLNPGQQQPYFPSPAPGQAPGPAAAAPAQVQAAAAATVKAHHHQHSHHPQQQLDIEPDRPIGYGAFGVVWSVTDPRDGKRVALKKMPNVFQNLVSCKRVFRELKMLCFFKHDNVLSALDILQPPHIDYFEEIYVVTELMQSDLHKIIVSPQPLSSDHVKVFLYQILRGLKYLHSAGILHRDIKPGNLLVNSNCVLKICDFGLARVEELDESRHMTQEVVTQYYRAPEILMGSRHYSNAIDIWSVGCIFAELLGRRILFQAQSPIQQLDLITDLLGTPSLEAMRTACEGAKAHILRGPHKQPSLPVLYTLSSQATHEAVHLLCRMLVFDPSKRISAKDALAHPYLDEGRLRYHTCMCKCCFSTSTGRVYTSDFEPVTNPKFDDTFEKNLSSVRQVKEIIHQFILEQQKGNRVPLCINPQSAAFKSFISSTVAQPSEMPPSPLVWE

[4] = target: Death-associated protein kinase 3 (Homo sapiens, UniProt O43293)
Chain of Death-associated protein kinase 3 (O43293 whole entry): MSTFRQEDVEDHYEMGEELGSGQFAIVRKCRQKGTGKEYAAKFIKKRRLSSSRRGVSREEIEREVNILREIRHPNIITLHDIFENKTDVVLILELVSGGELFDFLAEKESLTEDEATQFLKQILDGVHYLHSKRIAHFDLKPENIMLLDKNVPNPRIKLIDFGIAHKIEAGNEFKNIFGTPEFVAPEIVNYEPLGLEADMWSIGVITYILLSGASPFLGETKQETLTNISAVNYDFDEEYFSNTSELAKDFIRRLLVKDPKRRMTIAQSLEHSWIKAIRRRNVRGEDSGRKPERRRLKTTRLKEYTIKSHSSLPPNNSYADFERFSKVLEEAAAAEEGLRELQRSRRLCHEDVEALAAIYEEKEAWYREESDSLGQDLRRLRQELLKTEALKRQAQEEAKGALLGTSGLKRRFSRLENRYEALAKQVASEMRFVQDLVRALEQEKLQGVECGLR

[5] = target: Mitogen-activated protein kinase kinase kinase 4 (Homo sapiens, UniProt Q9Y6R4)
Chain of Mitogen-activated protein kinase kinase kinase 4 (Q9Y6R4 whole entry): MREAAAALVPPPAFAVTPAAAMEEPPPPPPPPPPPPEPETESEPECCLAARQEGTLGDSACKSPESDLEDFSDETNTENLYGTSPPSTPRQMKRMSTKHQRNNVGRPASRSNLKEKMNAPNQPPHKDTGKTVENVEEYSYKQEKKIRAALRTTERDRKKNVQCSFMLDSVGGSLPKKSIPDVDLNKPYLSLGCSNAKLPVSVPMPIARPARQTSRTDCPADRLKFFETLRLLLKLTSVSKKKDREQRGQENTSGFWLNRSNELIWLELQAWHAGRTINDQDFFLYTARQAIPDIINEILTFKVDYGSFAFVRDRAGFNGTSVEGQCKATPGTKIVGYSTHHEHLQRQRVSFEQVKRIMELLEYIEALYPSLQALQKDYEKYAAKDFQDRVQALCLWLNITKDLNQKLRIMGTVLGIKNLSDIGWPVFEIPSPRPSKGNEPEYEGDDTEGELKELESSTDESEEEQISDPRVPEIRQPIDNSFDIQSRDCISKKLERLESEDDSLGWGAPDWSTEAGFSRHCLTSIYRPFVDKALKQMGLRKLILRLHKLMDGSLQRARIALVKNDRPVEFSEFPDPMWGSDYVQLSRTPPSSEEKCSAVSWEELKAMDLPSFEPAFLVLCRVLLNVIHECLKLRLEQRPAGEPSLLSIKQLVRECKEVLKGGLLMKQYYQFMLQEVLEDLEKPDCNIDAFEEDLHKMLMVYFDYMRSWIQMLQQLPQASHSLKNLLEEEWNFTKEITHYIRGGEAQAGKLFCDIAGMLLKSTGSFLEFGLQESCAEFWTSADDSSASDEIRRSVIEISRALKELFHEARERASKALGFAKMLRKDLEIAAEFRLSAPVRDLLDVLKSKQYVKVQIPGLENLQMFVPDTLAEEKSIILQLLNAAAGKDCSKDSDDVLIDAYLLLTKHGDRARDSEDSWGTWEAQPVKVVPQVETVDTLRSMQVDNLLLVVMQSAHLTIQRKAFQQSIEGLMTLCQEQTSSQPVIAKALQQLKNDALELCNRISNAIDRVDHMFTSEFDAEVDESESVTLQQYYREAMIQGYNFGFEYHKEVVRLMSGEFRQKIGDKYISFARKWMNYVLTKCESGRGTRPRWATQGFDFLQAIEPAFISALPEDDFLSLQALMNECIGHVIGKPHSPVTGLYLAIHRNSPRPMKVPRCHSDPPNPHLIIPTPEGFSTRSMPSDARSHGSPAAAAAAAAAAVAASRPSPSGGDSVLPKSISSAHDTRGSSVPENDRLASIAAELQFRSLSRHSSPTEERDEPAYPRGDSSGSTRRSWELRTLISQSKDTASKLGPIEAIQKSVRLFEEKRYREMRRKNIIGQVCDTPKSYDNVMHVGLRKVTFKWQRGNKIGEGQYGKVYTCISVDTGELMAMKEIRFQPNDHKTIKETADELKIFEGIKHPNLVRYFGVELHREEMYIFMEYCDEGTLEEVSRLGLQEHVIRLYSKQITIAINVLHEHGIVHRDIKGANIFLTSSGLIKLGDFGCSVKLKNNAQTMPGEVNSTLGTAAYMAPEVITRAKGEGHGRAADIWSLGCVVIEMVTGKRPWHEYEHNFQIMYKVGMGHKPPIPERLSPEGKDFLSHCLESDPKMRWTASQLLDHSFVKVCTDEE

[6] = target: T2, Serine/threonine-protein kinase Nek1 (Homo sapiens, UniProt Q96PY6)
T2 sequence (Q96PY6 whole entry): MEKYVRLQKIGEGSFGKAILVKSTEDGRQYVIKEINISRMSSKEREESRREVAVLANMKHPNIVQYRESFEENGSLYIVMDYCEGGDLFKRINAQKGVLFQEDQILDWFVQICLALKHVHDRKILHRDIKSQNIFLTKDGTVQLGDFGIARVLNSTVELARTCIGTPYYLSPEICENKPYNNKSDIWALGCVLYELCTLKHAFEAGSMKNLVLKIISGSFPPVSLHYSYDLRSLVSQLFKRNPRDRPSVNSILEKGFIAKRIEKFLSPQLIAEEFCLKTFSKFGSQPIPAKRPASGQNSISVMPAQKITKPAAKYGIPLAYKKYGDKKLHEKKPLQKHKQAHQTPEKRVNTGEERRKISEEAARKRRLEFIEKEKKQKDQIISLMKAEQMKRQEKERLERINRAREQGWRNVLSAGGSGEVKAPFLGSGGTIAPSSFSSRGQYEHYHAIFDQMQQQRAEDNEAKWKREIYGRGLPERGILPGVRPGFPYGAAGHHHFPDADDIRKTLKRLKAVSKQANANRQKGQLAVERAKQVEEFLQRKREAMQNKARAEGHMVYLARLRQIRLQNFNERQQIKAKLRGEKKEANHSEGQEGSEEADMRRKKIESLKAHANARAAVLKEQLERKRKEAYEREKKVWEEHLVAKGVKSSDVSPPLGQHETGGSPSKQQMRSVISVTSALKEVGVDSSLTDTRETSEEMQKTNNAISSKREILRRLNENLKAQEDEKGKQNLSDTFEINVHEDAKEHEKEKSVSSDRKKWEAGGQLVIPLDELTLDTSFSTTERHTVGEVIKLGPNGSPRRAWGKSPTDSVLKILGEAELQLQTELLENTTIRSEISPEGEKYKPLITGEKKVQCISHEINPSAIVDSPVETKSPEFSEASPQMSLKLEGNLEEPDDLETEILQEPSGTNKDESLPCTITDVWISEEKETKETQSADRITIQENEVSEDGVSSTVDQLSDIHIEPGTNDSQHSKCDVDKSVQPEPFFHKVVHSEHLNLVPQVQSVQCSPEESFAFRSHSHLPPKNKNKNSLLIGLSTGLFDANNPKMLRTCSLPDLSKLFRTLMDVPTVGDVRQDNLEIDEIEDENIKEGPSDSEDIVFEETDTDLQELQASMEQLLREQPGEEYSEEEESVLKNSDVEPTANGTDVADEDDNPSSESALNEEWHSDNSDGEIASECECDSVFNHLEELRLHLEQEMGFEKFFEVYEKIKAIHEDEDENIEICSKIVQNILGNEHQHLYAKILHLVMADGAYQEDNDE

[7] = target: T3, Mitogen-activated protein kinase kinase kinase kinase 3 (Homo sapiens, UniProt Q8IVH8)
T3 sequence (Q8IVH8 whole entry): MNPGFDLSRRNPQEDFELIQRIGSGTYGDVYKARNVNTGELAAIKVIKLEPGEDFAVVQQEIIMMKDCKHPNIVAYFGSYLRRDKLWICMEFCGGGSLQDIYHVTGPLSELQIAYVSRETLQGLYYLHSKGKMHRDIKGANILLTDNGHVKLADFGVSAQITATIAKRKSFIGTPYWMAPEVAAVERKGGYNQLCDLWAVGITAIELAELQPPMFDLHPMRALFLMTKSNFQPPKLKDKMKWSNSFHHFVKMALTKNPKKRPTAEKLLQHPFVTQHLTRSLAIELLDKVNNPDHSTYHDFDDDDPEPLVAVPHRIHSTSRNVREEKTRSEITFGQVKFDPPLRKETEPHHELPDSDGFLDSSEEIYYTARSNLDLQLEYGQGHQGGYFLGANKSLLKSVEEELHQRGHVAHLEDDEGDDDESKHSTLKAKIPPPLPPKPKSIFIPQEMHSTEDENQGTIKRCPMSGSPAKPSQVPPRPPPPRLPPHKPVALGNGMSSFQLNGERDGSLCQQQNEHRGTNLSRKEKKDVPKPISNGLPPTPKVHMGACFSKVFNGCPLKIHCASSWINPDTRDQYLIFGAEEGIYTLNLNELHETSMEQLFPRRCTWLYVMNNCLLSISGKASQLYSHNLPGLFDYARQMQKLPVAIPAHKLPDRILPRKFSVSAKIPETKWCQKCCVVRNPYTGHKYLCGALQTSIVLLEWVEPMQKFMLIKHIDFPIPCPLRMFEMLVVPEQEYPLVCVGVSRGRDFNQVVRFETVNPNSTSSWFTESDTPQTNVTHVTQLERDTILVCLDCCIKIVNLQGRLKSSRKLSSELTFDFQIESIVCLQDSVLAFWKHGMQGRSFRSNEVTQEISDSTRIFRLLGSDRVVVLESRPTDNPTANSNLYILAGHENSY

Chain of Phosphatidylinositol 4-phosphate 5-kinase type-1 alpha (Q99755 whole entry): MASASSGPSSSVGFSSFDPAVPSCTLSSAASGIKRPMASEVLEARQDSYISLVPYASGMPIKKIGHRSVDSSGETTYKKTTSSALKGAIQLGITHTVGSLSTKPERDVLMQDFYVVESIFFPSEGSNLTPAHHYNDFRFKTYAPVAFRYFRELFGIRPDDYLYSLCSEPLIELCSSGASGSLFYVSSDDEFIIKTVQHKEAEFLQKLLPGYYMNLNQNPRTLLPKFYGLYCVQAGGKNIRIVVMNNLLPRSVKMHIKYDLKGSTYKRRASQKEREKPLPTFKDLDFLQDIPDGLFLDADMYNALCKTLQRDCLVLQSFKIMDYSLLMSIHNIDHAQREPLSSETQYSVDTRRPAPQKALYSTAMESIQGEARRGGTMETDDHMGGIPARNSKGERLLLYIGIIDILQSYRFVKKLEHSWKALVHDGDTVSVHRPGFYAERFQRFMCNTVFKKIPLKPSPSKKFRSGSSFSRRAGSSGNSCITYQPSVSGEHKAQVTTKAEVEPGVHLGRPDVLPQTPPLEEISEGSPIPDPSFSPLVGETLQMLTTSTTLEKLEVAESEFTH
Chain of Cyclin-dependent kinase 14 (O94921 whole entry): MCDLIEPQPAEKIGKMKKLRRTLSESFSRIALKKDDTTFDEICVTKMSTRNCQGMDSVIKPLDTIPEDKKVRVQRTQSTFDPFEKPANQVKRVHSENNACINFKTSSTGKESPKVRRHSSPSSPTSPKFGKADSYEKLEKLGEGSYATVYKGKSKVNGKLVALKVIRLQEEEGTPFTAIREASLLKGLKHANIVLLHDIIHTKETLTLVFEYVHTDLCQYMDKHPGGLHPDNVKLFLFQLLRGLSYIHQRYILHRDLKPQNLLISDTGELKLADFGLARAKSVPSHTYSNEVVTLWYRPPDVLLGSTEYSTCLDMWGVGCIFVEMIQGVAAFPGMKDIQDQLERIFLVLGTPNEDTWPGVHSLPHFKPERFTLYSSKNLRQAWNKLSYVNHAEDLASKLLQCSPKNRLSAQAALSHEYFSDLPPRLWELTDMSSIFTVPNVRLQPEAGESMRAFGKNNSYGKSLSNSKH

Structure (SMILES) | Kd [1] [µM] | Kd [2] [µM] | Kd [3] [µM] | Kd [4] [µM] | Kd [5] [µM] | Kd [6] [µM] | Kd [7] [µM]
CCOc1cc2ncc(C#N)c(Nc3ccc(F)c(Cl)c3)c2cc1NC(=O)/C=C/CN(C)C [PELITINIB] | > 10 | > 10 | > 10 |  |  |  | 
COCC(=O)NC/C=C/c1ccc2ncnc(Nc3ccc(Oc4ccc(C)nc4)c(C)c3)c2c1 [CP-724714] | > 10 | > 10 | > 10 | > 10 | > 10 | > 10 | > 10
NC(=O)c1ccc(-c2nc(-c3ccc4c(c3)OCO4)c(-c3ccccn3)[nH]2)cc1 [SB-431542] | > 10 | > 10 | > 10 | > 10 | > 10 | > 10 | > 10
Nc1nc(Nc2ccc(S(N)(=O)=O)cc2)nn1C(=O)c1c(F)cccc1F [JNJ-7706621] | 3.6 | 9.2 | > 10 | > 10 | > 10 | > 10 | 
Oc1ccc(-c2nc(-c3ccncc3)c(-c3ccc(F)cc3)[nH]2)cc1 [SB-202190] | > 10 | > 10 | 0.028 | > 10 | > 10 | > 10 | > 10
CCN1CCN(Cc2ccc(NC(=O)Nc3ccc(Oc4cc(NC)ncn4)cc3)cc2C(F)(F)F)CC1 [AST-487] |  |  |  |  |  | > 10 | 

From ChEMBL document CHEMBL1150977, “A quantitative analysis of kinase inhibitor selectivity” (Nat Biotechnol, 2008)
